# Counter-ions that a name gives are not always drawn.
# Key:
# [1] = tested on: acute EAE murine model of MS; assay: Acute EAE murine model (MOG-induced), clinical score over 35 days; assay type: in vivo, female C57BL/6J mice
# [2] = disturbance of coordination of movement and a sedative effect; cited from earlier work
# NMDA receptor = conditions: dose producing the anti-NMDA effect; cited from earlier work
SMILES,"activity (average clinical score) compared to the vehicle-only treatment group (1F) ([1]; 1.0 mg/kg IP once daily from study day 0, 35-day study, n = 10)","activity (average clinical score) compared to the vehicle-only treatment group (1F) ([1]; 10.0 mg/kg IP once daily (group 5F), at the end of the study)","activity (average clinical score) compared to the vehicle-only treatment group (1F) ([1]; 10.0 mg/kg IP once daily (group 5F), intermediate time points, days 26 and 27)",adverse effects at doses producing the anti-NMDA effect [2],ED50 of anti-NMDA effect (NMDA receptor) [mg/kg]
"Cc1ccc2c(c1)c1c(n2CCc2ccc(C)nc2)CCN(C)C1 [Dimebon, 2,8-dimethyl-5-(2-(6-methyl-3-pyridyl)ethyl)-2,3,4,5-tetrahydro-1H-pyrido[4,3-b]indole dihydrochloride]",statistically significant,not statistically significant,statistically significant,,
"NC(CCCP(=O)(O)O)C(=O)O (centres unmarked) [AP5, 2-amino-5-phosphonovaleric acid]",,,,neurotoxic effects,190

# From patent US20110195049A1, “COMPOSITIONS AND METHODS FOR TREATING MULTIPLE SCLEROSIS” (BIOVISTA, INC., priority 2008, published 2011)
